Measurements from ChEMBL document CHEMBL4507320, “Data for DCP probe NVS-MALT1” (2021).

Assays:
[1] = target: Cyclin-dependent kinase 4 (Homo sapiens) (UniProt P11802); conditions: Compound concentration 1000.0 nM
[2] = target: Cyclin-dependent kinase 3 (Homo sapiens) (UniProt Q00526); conditions: Compound concentration 1000.0 nM
[3] = target: 5-hydroxytryptamine receptor 2C (Homo sapiens) (UniProt P28335); conditions: Compound concentration 10.0 uM
[4] = target: Homeodomain-interacting protein kinase 3 (Homo sapiens) (UniProt Q9H422); conditions: Compound concentration 1000.0 nM
[5] = target: Calcium/calmodulin-dependent protein kinase type 1D (Homo sapiens) (UniProt Q8IU85); conditions: Compound concentration 1000.0 nM
[6] = target: Serine/threonine-protein kinase D1 (Homo sapiens) (UniProt Q15139); conditions: Compound concentration 1000.0 nM
[7] = target: Ribosomal protein S6 kinase alpha-1 (Homo sapiens) (UniProt Q15418); conditions: Compound concentration 1000.0 nM
[8] = target: Calcium/calmodulin-dependent protein kinase kinase 1 (Homo sapiens) (UniProt Q8N5S9); conditions: Compound concentration 1000.0 nM
[9] = target: Mitogen-activated protein kinase 13 (Homo sapiens) (UniProt O15264); conditions: Compound concentration 1000.0 nM
[10] = target: Hormonally up-regulated neu tumor-associated kinase (Homo sapiens) (UniProt P57058); conditions: Compound concentration 1000.0 nM
[11] = target: Mitogen-activated protein kinase 15 (Homo sapiens) (UniProt Q8TD08); conditions: Compound concentration 1000.0 nM
[12] = target: Maternal embryonic leucine zipper kinase (Homo sapiens) (UniProt Q14680); conditions: Compound concentration 1000.0 nM
[13] = target: Protein-tyrosine kinase 6 (Homo sapiens) (UniProt Q13882); conditions: Compound concentration 1000.0 nM
[14] = target: MAP kinase-activated protein kinase 5 (Homo sapiens) (UniProt Q8IW41); conditions: Compound concentration 1000.0 nM
[15] = target: Fibroblast growth factor receptor 3 (Homo sapiens) (UniProt P22607); conditions: Compound concentration 1000.0 nM
[16] = target: Receptor-interacting serine/threonine-protein kinase 2 (Homo sapiens) (UniProt O43353); conditions: Compound concentration 1000.0 nM
[17] = target: Mast/stem cell growth factor receptor Kit (Homo sapiens) (UniProt P10721); conditions: Compound concentration 1000.0 nM
[18] = target: 5-hydroxytryptamine receptor 1B (Homo sapiens) (UniProt P28222); conditions: Compound concentration 10.0 uM
[19] = target: Ephrin type-A receptor 4 (Homo sapiens) (UniProt P54764); conditions: Compound concentration 1000.0 nM
[20] = target: Serine/threonine-protein kinase 35 (Homo sapiens) (UniProt Q8TDR2); conditions: Compound concentration 1000.0 nM
[21] = target: D(1B) dopamine receptor (Homo sapiens) (UniProt P21918); conditions: Compound concentration 10.0 uM
[22] = target: Muscarinic acetylcholine receptor M5 (Homo sapiens) (UniProt P08912); conditions: Compound concentration 10.0 uM
[23] = target: Dual specificity mitogen-activated protein kinase kinase 7 (Homo sapiens) (UniProt O14733); conditions: Compound concentration 1000.0 nM
[24] = target: Dual specificity mitogen-activated protein kinase kinase 1 (Homo sapiens) (UniProt Q02750); conditions: Compound concentration 1000.0 nM
[25] = target: Serine/threonine-protein kinase LATS1 (Homo sapiens) (UniProt O95835); conditions: Compound concentration 1000.0 nM
[26] = target: Mitogen-activated protein kinase kinase kinase 13 (Homo sapiens) (UniProt O43283); conditions: Compound concentration 1000.0 nM
[27] = target: Tyrosine-protein kinase Lck (Homo sapiens) (UniProt P06239); conditions: Compound concentration 1000.0 nM
[28] = target: Serine/threonine-protein kinase PAK 6 (Homo sapiens) (UniProt Q9NQU5); conditions: Compound concentration 1000.0 nM
[29] = target: Macrophage colony-stimulating factor 1 receptor (Homo sapiens) (UniProt P07333); conditions: Compound concentration 1000.0 nM
[30] = target: Protein-tyrosine kinase 2-beta (Homo sapiens) (UniProt Q14289); conditions: Compound concentration 1000.0 nM
[31] = target: Serine/threonine-protein kinase Nek2 (Homo sapiens) (UniProt P51955); conditions: Compound concentration 1000.0 nM
[32] = target: Tyrosine-protein kinase SYK (Homo sapiens) (UniProt P43405); conditions: Compound concentration 1000.0 nM
[33] = target: Serine/threonine-protein kinase MRCK beta (Homo sapiens) (UniProt Q9Y5S2); conditions: Compound concentration 1000.0 nM
[34] = target: Serine/threonine-protein kinase 16 (Homo sapiens) (UniProt O75716); conditions: Compound concentration 1000.0 nM
[35] = target: Membrane-associated tyrosine- and threonine-specific cdc2-inhibitory kinase (Homo sapiens) (UniProt Q99640); conditions: Compound concentration 1000.0 nM
[36] = target: Inhibitor of nuclear factor kappa-B kinase subunit beta (Homo sapiens) (UniProt O14920); conditions: Compound concentration 1000.0 nM
[37] = tested on: Epidermal growth factor receptor (Homo sapiens), P00533 [UNDEFINED MUTATION]; conditions: Compound concentration 1000.0 nM
[38] = target: Serine/threonine-protein kinase SIK3 (Homo sapiens) (UniProt Q9Y2K2); conditions: Compound concentration 1000.0 nM
[39] = tested on: Phosphatidylinositol 4,5-bisphosphate 3-kinase catalytic subunit alpha isoform (Homo sapiens), P42336 [H1047Y]; conditions: Compound concentration 1000.0 nM
[40] = tested on: Receptor-type tyrosine-protein kinase FLT3 (Homo sapiens), P36888 [R834Q]; conditions: Compound concentration 1000.0 nM
[41] = target: STE20-like serine/threonine-protein kinase (Homo sapiens) (UniProt Q9H2G2); conditions: Compound concentration 1000.0 nM
[42] = target: Myosin light chain kinase 2, skeletal/cardiac muscle (Homo sapiens) (UniProt Q9H1R3); conditions: Compound concentration 1000.0 nM
[43] = tested on: Mast/stem cell growth factor receptor Kit (Homo sapiens), P10721 [D816H]; conditions: Compound concentration 1000.0 nM
[44] = target: Mitogen-activated protein kinase kinase kinase kinase 4 (Homo sapiens) (UniProt O95819); conditions: Compound concentration 1000.0 nM
[45] = target: Death-associated protein kinase 1 (Homo sapiens) (UniProt P53355); conditions: Compound concentration 1000.0 nM

D(1B) dopamine receptor (Homo sapiens), sequence (P21918 whole entry): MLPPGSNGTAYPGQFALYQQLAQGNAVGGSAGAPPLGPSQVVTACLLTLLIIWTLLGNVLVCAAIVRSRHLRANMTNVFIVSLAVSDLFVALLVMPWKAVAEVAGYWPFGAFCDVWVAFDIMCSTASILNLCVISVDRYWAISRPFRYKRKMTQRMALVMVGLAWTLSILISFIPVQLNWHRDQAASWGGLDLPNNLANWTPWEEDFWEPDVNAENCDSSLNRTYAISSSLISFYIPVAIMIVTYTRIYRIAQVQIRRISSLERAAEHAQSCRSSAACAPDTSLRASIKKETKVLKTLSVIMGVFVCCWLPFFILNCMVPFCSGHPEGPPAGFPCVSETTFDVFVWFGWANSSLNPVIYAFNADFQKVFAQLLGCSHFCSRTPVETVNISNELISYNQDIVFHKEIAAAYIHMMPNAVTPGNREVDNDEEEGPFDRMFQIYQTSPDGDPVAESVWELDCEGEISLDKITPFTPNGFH
Inhibitor of nuclear factor kappa-B kinase subunit beta (Homo sapiens), sequence (O14920 whole entry): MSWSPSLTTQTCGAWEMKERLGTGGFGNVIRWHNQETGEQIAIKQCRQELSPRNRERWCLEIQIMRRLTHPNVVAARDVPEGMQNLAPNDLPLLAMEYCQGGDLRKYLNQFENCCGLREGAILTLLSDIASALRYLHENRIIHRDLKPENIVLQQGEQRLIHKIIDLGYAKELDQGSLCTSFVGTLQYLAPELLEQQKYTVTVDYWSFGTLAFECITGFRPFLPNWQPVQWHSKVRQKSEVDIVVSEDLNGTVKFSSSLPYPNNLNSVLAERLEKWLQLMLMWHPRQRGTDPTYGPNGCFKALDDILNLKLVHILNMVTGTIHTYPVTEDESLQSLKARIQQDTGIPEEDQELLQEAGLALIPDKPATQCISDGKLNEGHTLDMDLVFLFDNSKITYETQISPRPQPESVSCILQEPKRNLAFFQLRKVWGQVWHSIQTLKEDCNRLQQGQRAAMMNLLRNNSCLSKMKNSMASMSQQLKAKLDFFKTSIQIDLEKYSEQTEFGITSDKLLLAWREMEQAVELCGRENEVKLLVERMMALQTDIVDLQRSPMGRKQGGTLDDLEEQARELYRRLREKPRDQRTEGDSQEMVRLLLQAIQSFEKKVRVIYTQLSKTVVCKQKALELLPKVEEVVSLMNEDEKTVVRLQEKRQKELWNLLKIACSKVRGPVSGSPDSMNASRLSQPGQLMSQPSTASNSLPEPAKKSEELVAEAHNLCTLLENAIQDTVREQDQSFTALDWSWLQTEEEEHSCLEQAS
Homeodomain-interacting protein kinase 3 (Homo sapiens), sequence (Q9H422 whole entry, looked up): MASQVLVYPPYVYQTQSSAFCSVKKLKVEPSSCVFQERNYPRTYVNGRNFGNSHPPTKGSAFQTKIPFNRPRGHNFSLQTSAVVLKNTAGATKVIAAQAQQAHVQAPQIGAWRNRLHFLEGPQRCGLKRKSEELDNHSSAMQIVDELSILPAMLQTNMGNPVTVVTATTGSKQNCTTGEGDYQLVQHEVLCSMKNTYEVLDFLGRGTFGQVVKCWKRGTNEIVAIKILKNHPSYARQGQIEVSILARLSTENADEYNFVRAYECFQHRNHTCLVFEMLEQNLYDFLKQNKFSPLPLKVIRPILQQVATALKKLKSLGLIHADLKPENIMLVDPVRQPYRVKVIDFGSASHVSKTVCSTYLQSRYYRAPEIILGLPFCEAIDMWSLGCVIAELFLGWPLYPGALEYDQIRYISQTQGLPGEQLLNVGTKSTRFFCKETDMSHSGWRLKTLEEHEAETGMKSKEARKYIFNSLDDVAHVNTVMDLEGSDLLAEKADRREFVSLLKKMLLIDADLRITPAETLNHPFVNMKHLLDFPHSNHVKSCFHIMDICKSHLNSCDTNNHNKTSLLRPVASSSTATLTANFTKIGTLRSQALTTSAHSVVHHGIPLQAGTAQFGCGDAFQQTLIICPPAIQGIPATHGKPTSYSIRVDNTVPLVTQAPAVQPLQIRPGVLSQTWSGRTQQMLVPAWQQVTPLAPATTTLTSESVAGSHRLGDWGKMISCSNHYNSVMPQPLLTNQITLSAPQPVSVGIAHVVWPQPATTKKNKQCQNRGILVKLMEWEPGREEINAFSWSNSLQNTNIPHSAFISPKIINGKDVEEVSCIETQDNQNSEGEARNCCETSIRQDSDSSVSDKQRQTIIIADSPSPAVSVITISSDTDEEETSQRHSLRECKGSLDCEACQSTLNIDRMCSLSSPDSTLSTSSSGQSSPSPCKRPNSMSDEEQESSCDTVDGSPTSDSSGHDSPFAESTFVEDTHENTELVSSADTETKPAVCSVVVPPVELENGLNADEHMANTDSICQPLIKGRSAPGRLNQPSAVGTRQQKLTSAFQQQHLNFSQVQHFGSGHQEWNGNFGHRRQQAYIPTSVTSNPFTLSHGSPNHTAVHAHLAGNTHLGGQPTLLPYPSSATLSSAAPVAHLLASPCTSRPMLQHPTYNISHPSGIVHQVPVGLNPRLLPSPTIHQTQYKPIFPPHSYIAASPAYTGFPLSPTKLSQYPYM
Mitogen-activated protein kinase kinase kinase 13 (Homo sapiens), sequence (O43283 whole entry): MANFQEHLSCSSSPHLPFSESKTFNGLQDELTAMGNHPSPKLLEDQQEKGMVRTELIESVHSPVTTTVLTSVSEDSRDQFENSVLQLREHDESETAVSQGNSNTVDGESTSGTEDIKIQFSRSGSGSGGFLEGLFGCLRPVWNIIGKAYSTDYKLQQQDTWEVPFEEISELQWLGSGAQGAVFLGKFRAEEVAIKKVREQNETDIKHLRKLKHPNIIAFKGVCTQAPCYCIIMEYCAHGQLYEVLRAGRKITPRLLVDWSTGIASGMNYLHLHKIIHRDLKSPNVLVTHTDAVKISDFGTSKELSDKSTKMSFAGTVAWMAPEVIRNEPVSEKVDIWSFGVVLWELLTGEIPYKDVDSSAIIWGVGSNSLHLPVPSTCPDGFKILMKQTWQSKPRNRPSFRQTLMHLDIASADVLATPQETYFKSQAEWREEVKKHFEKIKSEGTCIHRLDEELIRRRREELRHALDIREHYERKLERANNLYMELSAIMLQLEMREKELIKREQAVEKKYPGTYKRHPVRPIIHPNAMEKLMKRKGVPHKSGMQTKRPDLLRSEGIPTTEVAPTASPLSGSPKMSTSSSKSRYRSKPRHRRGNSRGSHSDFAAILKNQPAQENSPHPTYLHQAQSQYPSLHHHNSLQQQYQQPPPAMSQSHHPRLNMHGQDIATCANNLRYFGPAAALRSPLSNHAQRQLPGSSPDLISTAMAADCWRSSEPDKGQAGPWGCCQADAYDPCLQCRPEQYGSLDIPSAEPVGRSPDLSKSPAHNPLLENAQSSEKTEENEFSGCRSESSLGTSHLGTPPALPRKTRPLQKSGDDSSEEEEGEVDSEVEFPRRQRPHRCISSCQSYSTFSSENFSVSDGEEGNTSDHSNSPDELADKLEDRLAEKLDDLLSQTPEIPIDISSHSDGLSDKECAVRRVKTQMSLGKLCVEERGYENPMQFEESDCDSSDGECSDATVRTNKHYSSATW
Tyrosine-protein kinase Lck (Homo sapiens), sequence (P06239 2-509 limits assumed): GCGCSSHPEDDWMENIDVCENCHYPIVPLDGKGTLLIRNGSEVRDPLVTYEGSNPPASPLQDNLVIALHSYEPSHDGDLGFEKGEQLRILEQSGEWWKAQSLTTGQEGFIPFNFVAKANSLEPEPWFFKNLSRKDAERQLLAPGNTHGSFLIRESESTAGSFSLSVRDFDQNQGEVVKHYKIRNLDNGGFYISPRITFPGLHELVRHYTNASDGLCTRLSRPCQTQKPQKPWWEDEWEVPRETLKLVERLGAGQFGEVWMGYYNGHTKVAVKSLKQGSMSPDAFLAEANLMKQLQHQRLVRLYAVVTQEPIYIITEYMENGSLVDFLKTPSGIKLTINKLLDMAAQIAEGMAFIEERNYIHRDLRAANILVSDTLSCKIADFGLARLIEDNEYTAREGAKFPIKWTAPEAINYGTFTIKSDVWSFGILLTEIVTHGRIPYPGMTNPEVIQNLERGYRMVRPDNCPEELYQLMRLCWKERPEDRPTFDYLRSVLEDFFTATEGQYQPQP
Calcium/calmodulin-dependent protein kinase kinase 1 (Homo sapiens), sequence (Q8N5S9 whole entry, looked up): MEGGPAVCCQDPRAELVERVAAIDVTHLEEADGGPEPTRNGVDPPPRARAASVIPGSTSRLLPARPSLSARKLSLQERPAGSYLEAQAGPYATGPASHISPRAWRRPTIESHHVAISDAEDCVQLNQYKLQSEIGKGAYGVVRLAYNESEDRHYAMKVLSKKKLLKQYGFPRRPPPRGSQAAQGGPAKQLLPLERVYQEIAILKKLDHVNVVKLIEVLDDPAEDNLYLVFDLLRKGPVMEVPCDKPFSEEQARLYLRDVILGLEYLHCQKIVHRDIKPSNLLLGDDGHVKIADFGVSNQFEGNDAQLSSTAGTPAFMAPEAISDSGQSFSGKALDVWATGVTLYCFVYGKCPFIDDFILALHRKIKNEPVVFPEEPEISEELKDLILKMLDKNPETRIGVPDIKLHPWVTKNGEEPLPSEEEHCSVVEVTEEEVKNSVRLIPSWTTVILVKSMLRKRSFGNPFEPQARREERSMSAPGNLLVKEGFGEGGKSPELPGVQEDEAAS
Cyclin-dependent kinase 4 (Homo sapiens), sequence (P11802 whole entry): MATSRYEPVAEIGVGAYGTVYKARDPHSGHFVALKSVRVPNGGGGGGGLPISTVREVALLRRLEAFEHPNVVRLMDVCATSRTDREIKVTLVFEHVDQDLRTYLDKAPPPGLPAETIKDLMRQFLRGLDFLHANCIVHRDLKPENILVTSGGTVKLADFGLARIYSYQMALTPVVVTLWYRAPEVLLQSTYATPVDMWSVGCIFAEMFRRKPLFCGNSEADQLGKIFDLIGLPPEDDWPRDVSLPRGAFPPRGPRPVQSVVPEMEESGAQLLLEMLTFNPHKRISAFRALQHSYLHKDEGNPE
Cyclin-dependent kinase 3 (Homo sapiens), sequence (Q00526 whole entry, looked up): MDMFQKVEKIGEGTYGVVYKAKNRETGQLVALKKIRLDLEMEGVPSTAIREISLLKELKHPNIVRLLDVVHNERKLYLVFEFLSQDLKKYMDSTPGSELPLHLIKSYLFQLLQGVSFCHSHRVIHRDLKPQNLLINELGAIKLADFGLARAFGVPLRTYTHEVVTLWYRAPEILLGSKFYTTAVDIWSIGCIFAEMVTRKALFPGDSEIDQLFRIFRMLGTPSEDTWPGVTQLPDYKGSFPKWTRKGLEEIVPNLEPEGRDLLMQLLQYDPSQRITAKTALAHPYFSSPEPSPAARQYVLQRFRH

CO[C@@H](C)c1c(Nc2ccc([C@@H](N(C)C(=O)C3CCS(=O)(=O)CC3)C(F)(F)F)cc2)cnc2cc(Cl)nn12 [NVS-MALT1-C]
inactive: residual activity [1] 100% | residual activity [2] 88% | inhibition [3] 3.25% | residual activity [4] 100% | residual activity [5] 100% | residual activity [6] 100% | residual activity [7] 99% | residual activity [8] 98% | residual activity [9] 100% | residual activity [10] 100% | residual activity [11] 81% | residual activity [12] 52% | residual activity [13] 100% | residual activity [14] 100% | residual activity [15] 90% | residual activity [16] 83% | residual activity [17] 85% | inhibition [18] 11.4% | residual activity [19] 100% | residual activity [20] 90% | inhibition [21] 4.72% | inhibition [22] 7.57% | residual activity [23] 100% | residual activity [24] 100% | residual activity [25] 98% | residual activity [26] 100% | residual activity [27] 84% | residual activity [28] 100% | residual activity [29] 72% | residual activity [30] 100% | residual activity [31] 94% | residual activity [32] 90% | residual activity [33] 89% | residual activity [34] 100% | residual activity [35] 99% | residual activity [36] 100% | residual activity [37] 87% | residual activity [38] 100% | residual activity [39] 52% | residual activity [40] 100% | residual activity [41] 83% | residual activity [42] 88% | residual activity [43] 100% | residual activity [44] 100% | residual activity [45] 89%

CO[C@@H](C)c1c(Nc2ccc([C@H](N(C)C(=O)C3CCS(=O)(=O)CC3)C(F)(F)F)cc2)cnc2cc(Cl)nn12 [NVS-MALT1]
inactive: residual activity [1] 100% | residual activity [2] 90% | inhibition [3] -4.22% | residual activity [4] 100% | residual activity [5] 99% | residual activity [6] 100% | residual activity [7] 91% | residual activity [8] 80% | residual activity [9] 100% | residual activity [10] 100% | residual activity [11] 87% | residual activity [12] 59% | residual activity [13] 81% | residual activity [14] 100% | residual activity [15] 88% | residual activity [16] 74% | residual activity [17] 98% | inhibition [18] 12.5% | residual activity [19] 83% | residual activity [20] 80% | inhibition [21] 9.7% | inhibition [22] 14.6% | residual activity [23] 100% | residual activity [24] 100% | residual activity [25] 88% | residual activity [26] 78% | residual activity [27] 83% | residual activity [28] 100% | residual activity [29] 77% | residual activity [30] 83% | residual activity [31] 100% | residual activity [32] 82% | residual activity [33] 81% | residual activity [34] 75% | residual activity [35] 85% | residual activity [36] 100% | residual activity [37] 99% | residual activity [38] 100% | residual activity [39] 62% | residual activity [40] 100% | residual activity [41] 81% | residual activity [42] 83% | residual activity [43] 100% | residual activity [44] 100% | residual activity [45] 88%
